Assay results from patent US20240400579A1, “SPIROCYCLIC MODULATORS OF CHOLESTEROL BIOSYNTHESIS AND THEIR USE FOR PROMOTING REMYELINATION” (GENENTECH, INC., priority 2021, published 2024).
Read-outs that look alike come from different tables or passages of the source.

Experiments:
human EBP = human EBP (Homo sapiens (Human), UniProt Q15125); assay: Competition binding assay (SPA) to determine compound affinity to EBP; conditions: read-out: hEBP SPA Ki
Method: Membrane preparation: To examine compound binding affinity to EBP, human EBP was overexpressed in human embryonic kidney 293 cells. Cell pellet was lysed in 10 times weight binding buffer (50 mM Tris, 5 mM MgCl2, 0.1 mM EDTA, 1× protease inhibitor cocktail, pH 7.5) on ice by using a dounce homogenizer. The solution was centrifuged at 25,000 g for 50 min at 4° C. The membrane pellet was re-suspended in binding buffer and run through a 25 5/8 gauge needle. After checking the concentration by Bradford assay, the whole cell membrane solution was adjusted to 20 mg/mL and stored at −80° C.
This binding solution was centrifuged at 400 g for 5 minutes to collect the bead/membrane mixture. After re-suspending the pellet in binding buffer at the same calculated volume with 0.01% BSA (Sigma A1933), the bead/membrane mixture was added in 384-well low-binding surface plate (PerkinElmer Cat #6057480) at 25 i/well. Radioligand at different concentrations with and without the non-radio-labeled same ligand 5 uM (for nonspecific and total signal, respectively) was added to bring final volume to 50 i/well with DMSO concentration at 0.1%. At equilibrium (3 hours after ligand addition), radiometric signal CPM was counted by using a Microbeta2 microplate counter (Perkinelmer).
Competition binding assay to determine compound affinity: The same conditions of the radioligand Kd study were used for compound single dose percentage inhibition and equilibrium dissociation constant Ki examinations, except 50 nL compound DMSO stock was pre-added in 384-well low-binding surface plate (PerkinElmer Cat #6057480) by Echo 550 (Labcyte) to reach the final concentration for single dose test at 1 uM, and dose response test from 0.06 nM to 5 uM (8 dose, 5 times dilution). A pre-incubated bead/membrane mixture was added in compound plate at 0.3 mg beads and […] membrane per well. […] At equilibrium (3 hours after ligand addition), radiometric signal was counted as described above. The percentage inhibition of compound at each testing concentration was calculated by normalizing each condition's CPM readout to full block (5 uM non-radiolabeled ligand) and non-block (DMSO) control conditions. Compound binding inhibition IC50 was determined by nonlinear regression fitting of percentage inhibition plot against compound concentration. Compound Ki was calculated from the equation Ki=IC50/(1+[L]/Kd), which [L] was radioligand concentration used in assay. All tests had N bigger or equal to 2.

[1] = target: human emopamil binding protein and human 7-dehydrocholesterol reductase co-expressing cell membrane (Homo sapiens (Human), UniProt Q15125); assay: hEBP-DHCR7 radioligand filtration binding assay with [3H]-Compound 118A*; conditions: radioligand [3H]-Compound 118A*; HEK293 membrane co-expressing hEBP and DHCR7
human emopamil binding protein and human 7-dehydrocholesterol reductase co-expressing cell membrane, sequence (Q15125 whole entry): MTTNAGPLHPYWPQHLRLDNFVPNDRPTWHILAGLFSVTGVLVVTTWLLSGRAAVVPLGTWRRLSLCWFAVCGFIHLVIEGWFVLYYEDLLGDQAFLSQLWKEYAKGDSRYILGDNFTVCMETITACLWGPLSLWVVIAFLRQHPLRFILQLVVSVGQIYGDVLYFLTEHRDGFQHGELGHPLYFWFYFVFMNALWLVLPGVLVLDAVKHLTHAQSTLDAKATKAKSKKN
In short: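 HEK293 membranes transiently co-expressing hEBP and hDHCR7 (10 μg/well) were incubated with [3H]-Compound 118A* (added at 25 nM) and compounds (8 doses, final 0.06–5000 nM, n=2) for 3 h at 22 °C. Bound radioactivity was read after PEI-treated GF/B filtration. IC50 came from a Hill fit of % inhibition and was converted to Ki.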

[2] = radioligand [3H]-Ifenprodil 10 nM, Ki=IC50/(1+[L]/Kd), HEK293 membrane

human EBP, sequence (Q15125 whole entry): as above

Ki (human EBP; [2]) [µM]	Ki [1] [µM]	Ki (human EBP) [µM]	Structure (SMILES)
0.018	0.0137	–	O=S1(=O)CC2(CCN(CC[C@H](F)c3ccc(C(F)(F)F)cc3)C2)C1 (single isomer, unassigned) [Compound 122B]
0.044	0.0256	–	CC(C)(CN1CC[C@@]2(CCS(=O)(=O)C2)C1)Oc1ccc(C(F)(F)F)cc1 (single isomer, unassigned) [Compound 141A]
0.056	0.0296	–	C[C@@H](Cc1ccc(C(F)F)cc1)CN1CCC2(C1)CS(=O)(=O)C2 (single isomer, unassigned) [Compound 128A]
0.061	0.0584	–	CC(C)(CN1CC[C@]2(CCS(=O)(=O)C2)C1)Oc1ccc(C(F)(F)F)cc1 (single isomer, unassigned) [Compound 141B]
0.032	0.0286	–	CC(C)(Cc1ccc(C(F)(F)F)nc1)CN1CC[C@@]2(CCS(=O)(=O)C2)C1 (single isomer, unassigned) [Compound 148B]

The remaining lines, values behind:

Structure (SMILES)	Ki (human EBP; [2]) [µM]	Ki [1] [µM]	Ki (human EBP) [µM]
C[C@H](Cc1ccc(C(F)(F)F)cc1)CN1CCC2(C1)CS(=O)(=O)C2 (single isomer, unassigned) [114B*]	0.034	0.00585	–
CCC(C)(C)c1ccc(CC(C)CN2CCC3(C2)CS(=O)(=O)C3)cc1 (racemic) [Compound 107, 6-(2-Methyl-3-(4-(tert-pentyl)phenyl)propyl)-2-thia-6-azaspiro[3.4]octane 2,2-dioxide]	0.023	0.0103	–
C[C@H](Cc1ccnc(C(F)(F)F)c1)CN1CCC2(C1)CS(=O)(=O)C2 (single isomer, unassigned) [Compound 126B]	0.12	0.0676	–
CC(C)(Cc1ccc(C(F)(F)F)nc1)CN1CCC2(C1)CS(=O)(=O)C2 [Example 140, 6-(2,2-Dimethyl-3-(6-(trifluoromethyl)pyridin-3-yl)propyl)-2-thia-6-azaspiro[3.4]octane-2,2-dioxide]	0.018	0.0199	–
CC(C)(Cc1ccc(C2CCC(F)(F)CC2)c(Cl)c1)CN1CCC2(C1)CS(=O)(=O)C2 [Example 139, 6-(3-(3-Chloro-4-(4,4-difluorocyclohexyl)phenyl)-2,2-dimethylpropyl)-2-thia-6-azaspiro[3.4]octane 2,2-dioxide]	0.03	0.00923	–
CC(Cc1ccc(C2CCC2)cc1)CN1CCC2(C1)CS(=O)(=O)C2 (racemic) [Compound 109A, 6-(3-(4-cyclobutylphenyl)-2-methylpropyl)-2-thia-6-azaspiro[3.4]octane 2,2-dioxide]	0.032	0.0125	–
COC(Cc1ccc(C(F)(F)F)cc1)CN1CCC2(C1)CS(=O)(=O)C2 (racemic) [Example 143, (S)-6-(2-Methoxy-3-(4-(trifluoromethyl)phenyl)propyl)-2-thia-6-azaspiro[3.4]octane 2,2-dioxide and (R)-6-(2-methoxy-3-(4-(trifluoromethyl)phenyl)propyl)-2-thia-6-azaspiro[3.4]octane 2,2-dioxide]	0.027	0.0126	–
CC(C)(CN1CCC2(C1)CS(=O)(=O)C2)Oc1ccc(C(F)(F)F)nc1 [Example 135, 6-(2-Methyl-2-((6-(trifluoromethyl)pyridin-3-yl)oxy)propyl)-2-thia-6-azaspiro[3.4]octane-2,2-dioxide]	0.029	0.0396	–
CC(C)(CN1CCC2(C1)CS(=O)(=O)C2)Oc1cccc(OC(F)(F)F)c1 [Example 131, 6-(2-Methyl-2-(3-(trifluoromethoxy)phenoxy)propyl)-2-thia-6-azaspiro[3.4]octane 2,2-dioxide]	0.031	0.118	–
O=S1(=O)CC2(CCN(CCOc3ccc(C(F)(F)F)nc3)CC2)C1 [Compound 230, 7-(2-((6-(Trifluoromethyl)pyridin-3-yl)oxy)ethyl)-2-thia-7-azaspiro[3.5]nonane 2,2-dioxide]	0.022	0.749	–
O=S1(=O)CCC2(CC1)CN(CCOc1ccc(C(F)(F)F)cc1)C2 [Example 201, 2-(2-(4-(Trifluoromethyl)phenoxy)ethyl)-7-thia-2-azaspiro[3.5]nonane 7,7-dioxide]	0.013	0.0257	–
CC(C)(CN1CCC2(C1)CS(=O)(=O)C2)Oc1ccc(OC(F)(F)F)cc1 [Example 136, 6-(2-Methyl-2-(4-(trifluoromethoxy)phenoxy)propyl)-2-thia-6-azaspiro[3.4]octane 2,2-dioxide]	0.029	0.0142	–
O=S1(=O)CC2(CCN(CCOc3ccc(C(F)(F)F)cc3)C2)C1 [Compound 112, 6-(2-(4-(Trifluoromethyl)phenoxy)ethyl)-2-thia-6-azaspiro[3.4]octane-2,2-dioxide]	0.028	0.0135	–
C[C@@H](Cc1ccnc(C(F)(F)F)c1)CN1CCC2(C1)CS(=O)(=O)C2 (single isomer, unassigned) [Compound 126A]	0.03	0.0474	–
O=S1(=O)CC2(CCN(CC3(Cc4ccc(C(F)(F)F)nc4)CC3)C2)C1 [Example 157, 6-((1-((6-(Trifluoromethyl)pyridin-3-yl)methyl)cyclopropyl)methyl)-2-thia-6-azaspiro[3.4]octane 2,2-dioxide]	0.025	0.0172	–
CC(C)(CN1CCC2(CC1)CS(=O)(=O)C2)Oc1ccc(C(F)(F)F)cc1 [Example 138, 7-(2-Methyl-2-(4-(trifluoromethyl)phenoxy)propyl)-2-thia-7-azaspiro[3.5]nonane 2,2-dioxide]	0.016	0.00504	–
C[C@@H](CN1CCC2(CC1)CS(=O)(=O)C2)Oc1ccc(F)c(F)c1 (single isomer, unassigned) [221A*]	–	0.0255	0.01
CC(C)(CN1CCC2(C1)CS(=O)(=O)C2)Oc1cccc(C(F)(F)F)c1 [Example 130, 6-(2-Methyl-2-(3-(trifluoromethyl)phenoxy)propyl)-2-thia-6-azaspiro[3.4]octane-2,2-dioxide]	0.016	0.0132	–
C[C@@H](Cc1cnc(C(F)(F)F)nc1)CN1CCC2(C1)CS(=O)(=O)C2 (single isomer, unassigned) [Compound 145A]	0.056	0.0691	–
C[C@@H](Cc1ccc(C(F)(F)F)nc1)CN1CCC2(C1)CS(=O)(=O)C2 (single isomer, unassigned) [118A*]	0.026	0.0221	–
C[C@@H](Cc1cnc(C(F)(F)F)nc1)CN1CCC2(CC1)CS(=O)(=O)C2 (single isomer, unassigned) [215A*]	0.021	0.105	–
CC(C)(CN1CCC2(C1)CS(=O)(=O)C2)Oc1cnc(C(F)(F)F)nc1 [Example 144, 6-(2-Methyl-2-((2-(trifluoromethyl)pyrimidin-5-yl)oxy)propyl)-2-thia-6-azaspiro[3.4]octane-2,2-dioxide]	0.053	0.0966	–
C[C@@H](Cc1ccc(C(F)(F)F)cc1)CN1CCC2(C1)CS(=O)(=O)C2 (single isomer, unassigned) [114A*]	0.035	0.0183	–
C[C@H](Cc1cnc(C(F)(F)F)nc1)CN1CCC2(CC1)CS(=O)(=O)C2 (single isomer, unassigned) [215B*]	0.025	0.136	–
CC(C)(CN1CCC2(C1)CS(=O)(=O)C2)Oc1ccc(C2CCC2)cc1 [Example 129, 6-(2-(4-Cyclobutylphenoxy)-2-methylpropyl)-2-thia-6-azaspiro[3.4]octane-2,2-dioxide]	0.021	0.0118	–
